{"source": "patent US20080064668A1", "about": "“1,3-Diacylated, 26,27-Alkyl/Haloakyl Vitamin D3 Compounds and Methods of Use Thereof” (BioXell S.p.A., priority 2003, published 2008)", "key": {"[1]": {"assay": "Determination of Maximum Tolerated Dose (MTD)", "method": "The maximum tolerated dose of the vitamin D3 compounds of the invention were determined in eight week-old female C57BL/6 mice (3 mice/group) dosed orally (0.1 ml/mouse) with various concentrations of Vitamin D3 analogs daily for four days. Analogs were formulated in miglyol for a final concentration of 0.01, 0.03, 0.1 0.3, 1, 3, 10, 30, 100 and 300 μg/kg when given at 0.1 ml/mouse p.o. daily. Blood for serum calcium assay was drawn by tail bleed on day five, the final day of the study."}, "ECV": {"tested_on": "ECV", "assay": "Proliferation assay using bladder cancer cell lines, ECV", "format": "cell-based, human", "conditions": "Homo sapiens; 72 h culture, CyQuant proliferation assay"}, "NOD mouse body weight": {"assay": "NOD mouse body weight", "format": "in vivo, mice", "method": "1,3-Di-O-acetyl-1,25-dihydroxy-16,23Z-diene-26,27-hexafluoro-19-nor-cholecalciferol (2) was dissolved in ethanol (1 mg/ml) and then diluted in miglyol 812. […]"}, "[2]": {"tested_on": "rats with CYP-induced cystitis", "assay": "Cyclophosphamide (CYP) induced chronic IC in rats, cystometry", "format": "in vivo, Wistar rats", "description": "The rat model of chemical cystitis induced by intraperitoneal injection of CYP has been well accepted. CYP is used in clinical practice in the treatment of a number of malignant tumors. One of its metabolites, acrolein, is excreted in urine in large concentrations causing hemorrhagic cystitis associated with symptoms of urinary frequency, urgency and pelvic pain. The inflammatory process is characterized by changes in gross histology of bladder, increase in number and distribution of inflammatory cell infiltrates (mast cells, macrophage, PMNs), cyclo-oxygenase-2 expression and prostaglandin production, growth factor and cytokine production. […]\nThis model was used to test the effects of 1,25-dihydroxyvitamin D3 analogue in rats with CYP-induced cystitis. The effects of the treatment on the cystometric parameters in a conscious freely moving rat with CYP-induced cystitis were monitored. The following cystometric parameters were recorded in each animal: bladder capacity, filling pressure (pressure at the beginning of the bladder filling), threshold pressure (bladder pressure immediately prior to micturition), micturition pressure (the maximal bladder pressure during micturition), presence or absence of non-voiding bladder contractions (increases in bladder pressure of at least 10 cm H20 without release of urine), and amplitude of non-voiding bladder contraction. […]"}, "RT4": {"tested_on": "RT4", "assay": "Proliferation assay using bladder cancer cell lines, RT4", "format": "cell-based, human", "conditions": "Homo sapiens, RT-4, 72 h, 72 h culture, CyQuant proliferation assay", "method": "Bladder cancer cell lines (T24, RT112, HT1376 and RT4 are human bladder cancer cell lines; NHEK are normal human keratinocytes) were obtained from the European Collection of Cell Cultures (Salisbury, UK). Cells were plated at 3×10^3 per well, in flat bottomed 96-well plates in 100 μl of DMEM medium containing: 5% Fetal Clone I, 50 μg/l gentamicin, 1 mM sodium pyruvate and 1% non-essential amino acids. After culturing for 24 h at 37° C. in 5% CO2, to allow cells to adhere to the plates, VDR ligands (compounds (2), (4), (5) and other vitamin D3 analogs as shown in Table 4) were added at concentrations ranging from 100 μM to 0.3 μM in 100 μl of above-mentioned complete medium. After a further 72 h of culture, cell proliferation was measured using a fluorescence-based proliferation assay kit. (CyQuant Cell Proliferation Assay Kit, Molecular Probes, Eugene, Oreg., USA). The IC50 was calculated from the regression curve of the titration data."}}, "data": [{"smiles": "CC(=O)OC1C/C(=C/C=C2\\CCC[C@]3(C)C(C(C)C/C=C\\C(O)(C(F)(F)F)C(F)(F)F)=CCC23)C[C@@H](OC(C)=O)C1", "note": "(some centres unmarked) [Compound (2), 1,3-Di-O-acetyl-1,25-dihydroxy-16,23Z-diene-26,27-hexafluoro-19-nor-cholecalciferol]", "values": [{"measurement": "MTD at 4 days", "setting": "[1]; female, C57BL/6, mouse, in vivo, po", "value": 0.1, "unit": "µg/kg"}, {"measurement": "MTD relative to compound (1)", "setting": "[1]; mice, MTD of (2) versus parent (1)", "value": "more than 300 times"}, {"measurement": "MTD compared with the corresponding dihydroxy (parent) compound", "setting": "[1]; versus (1) or (3)", "value": "significantly higher"}, {"measurement": "IC50", "setting": "ECV", "value": 55, "unit": "µM"}, {"measurement": "effect on body weight", "setting": "NOD mouse body weight; 0.1 mg/Kg or 0.2 mg/Kg dose", "value": "did not affect body weight"}, {"measurement": "NOD mouse body weight", "setting": "NOD mouse body weight; 0.1 mg/kg p.o., week 8", "value": 22.07, "unit": "g"}, {"measurement": "NOD mouse body weight", "setting": "NOD mouse body weight; 0.1 mg/kg p.o., week 9", "value": 22.98, "unit": "g"}, {"measurement": "NOD mouse body weight", "setting": "NOD mouse body weight; 0.1 mg/kg p.o., week 10", "value": 22.77, "unit": "g"}, {"measurement": "NOD mouse body weight", "setting": "NOD mouse body weight; 0.1 mg/kg p.o., week 11", "value": 23.4, "unit": "g"}, {"measurement": "NOD mouse body weight", "setting": "NOD mouse body weight; 0.1 mg/kg p.o., week 12", "value": 24.01, "unit": "g"}, {"measurement": "NOD mouse body weight", "setting": "NOD mouse body weight; 0.1 mg/kg p.o., week 13", "value": 23.69, "unit": "g"}, {"measurement": "NOD mouse body weight", "setting": "NOD mouse body weight; 0.1 mg/kg p.o., week 14", "value": 24.1, "unit": "g"}, {"measurement": "NOD mouse body weight", "setting": "NOD mouse body weight; 0.1 mg/kg p.o., week 15", "value": 24.6, "unit": "g"}, {"measurement": "NOD mouse body weight", "setting": "NOD mouse body weight; 0.1 mg/kg p.o., week 16", "value": 25, "unit": "g"}, {"measurement": "NOD mouse body weight", "setting": "NOD mouse body weight; 0.1 mg/kg p.o., week 17", "value": 24.6, "unit": "g"}, {"measurement": "NOD mouse body weight", "setting": "NOD mouse body weight; 0.1 mg/kg p.o., week 18", "value": 25.1, "unit": "g"}, {"measurement": "NOD mouse body weight", "setting": "NOD mouse body weight; 0.1 mg/kg p.o., week 19", "value": 25.6, "unit": "g"}, {"measurement": "NOD mouse body weight", "setting": "NOD mouse body weight; 0.1 mg/kg p.o., week 20", "value": 25.2, "unit": "g"}, {"measurement": "NOD mouse body weight", "setting": "NOD mouse body weight; 0.1 mg/kg p.o., week 21", "value": 25.6, "unit": "g"}, {"measurement": "NOD mouse body weight", "setting": "NOD mouse body weight; 0.1 mg/kg p.o., week 22", "value": 25.8, "unit": "g"}, {"measurement": "NOD mouse body weight", "setting": "NOD mouse body weight; 0.1 mg/kg p.o., week 23", "value": 25.5, "unit": "g"}, {"measurement": "NOD mouse body weight", "setting": "NOD mouse body weight; 0.1 mg/kg p.o., week 24", "value": 26.8, "unit": "g"}, {"measurement": "NOD mouse body weight", "setting": "NOD mouse body weight; 0.1 mg/kg p.o., week 25", "value": 26.4, "unit": "g"}, {"measurement": "NOD mouse body weight", "setting": "NOD mouse body weight; 0.1 mg/kg p.o., week 26", "value": 26.7, "unit": "g"}, {"measurement": "NOD mouse body weight", "setting": "NOD mouse body weight; 0.1 mg/kg p.o., week 27", "value": 26.5, "unit": "g"}, {"measurement": "NOD mouse body weight", "setting": "NOD mouse body weight; 0.2 mg/kg p.o., week 8", "value": 21.25, "unit": "g"}, {"measurement": "NOD mouse body weight", "setting": "NOD mouse body weight; 0.2 mg/kg p.o., week 9", "value": 21.75, "unit": "g"}, {"measurement": "NOD mouse body weight", "setting": "NOD mouse body weight; 0.2 mg/kg p.o., week 10", "value": 22.06, "unit": "g"}, {"measurement": "NOD mouse body weight", "setting": "NOD mouse body weight; 0.2 mg/kg p.o., week 11", "value": 22.99, "unit": "g"}, {"measurement": "NOD mouse body weight", "setting": "NOD mouse body weight; 0.2 mg/kg p.o., week 12", "value": 24.21, "unit": "g"}, {"measurement": "NOD mouse body weight", "setting": "NOD mouse body weight; 0.2 mg/kg p.o., week 13", "value": 24.4, "unit": "g"}, {"measurement": "NOD mouse body weight", "setting": "NOD mouse body weight; 0.2 mg/kg p.o., week 14", "value": 24.34, "unit": "g"}, {"measurement": "NOD mouse body weight", "setting": "NOD mouse body weight; 0.2 mg/kg p.o., week 15", "value": 24.53, "unit": "g"}, {"measurement": "NOD mouse body weight", "setting": "NOD mouse body weight; 0.2 mg/kg p.o., week 16", "value": 25.01, "unit": "g"}, {"measurement": "NOD mouse body weight", "setting": "NOD mouse body weight; 0.2 mg/kg p.o., week 17", "value": 24.33, "unit": "g"}, {"measurement": "NOD mouse body weight", "setting": "NOD mouse body weight; 0.2 mg/kg p.o., week 18", "value": 24.89, "unit": "g"}, {"measurement": "NOD mouse body weight", "setting": "NOD mouse body weight; 0.2 mg/kg p.o., week 19", "value": 25.29, "unit": "g"}, {"measurement": "NOD mouse body weight", "setting": "NOD mouse body weight; 0.2 mg/kg p.o., week 20", "value": 24.9, "unit": "g"}, {"measurement": "NOD mouse body weight", "setting": "NOD mouse body weight; 0.2 mg/kg p.o., week 21", "value": 25.41, "unit": "g"}, {"measurement": "NOD mouse body weight", "setting": "NOD mouse body weight; 0.2 mg/kg p.o., week 22", "value": 26.36, "unit": "g"}, {"measurement": "NOD mouse body weight", "setting": "NOD mouse body weight; 0.2 mg/kg p.o., week 23", "value": 25.8, "unit": "g"}, {"measurement": "NOD mouse body weight", "setting": "NOD mouse body weight; 0.2 mg/kg p.o., week 24", "value": 25.63, "unit": "g"}, {"measurement": "NOD mouse body weight", "setting": "NOD mouse body weight; 0.2 mg/kg p.o., week 25", "value": 26.12, "unit": "g"}, {"measurement": "NOD mouse body weight", "setting": "NOD mouse body weight; 0.2 mg/kg p.o., week 26", "value": 27.15, "unit": "g"}, {"measurement": "NOD mouse body weight", "setting": "NOD mouse body weight; 0.2 mg/kg p.o., week 27", "value": 26.56, "unit": "g"}, {"measurement": "ability to treat bladder dysfunction", "setting": "[2]", "value": "has the ability to treat bladder dysfunction"}, {"measurement": "IC50", "setting": "RT4", "value": 20, "unit": "µM"}]}]}
